Measurements as given in patent US20210122730A1, “GLUCOCORTICOID RECEPTOR MODULATORS” (ORIC Pharmaceuticals, Inc., priority 2017, published 2021).
pIC50: −log10 of the molar value.

How the values were obtained:
CYP2C8 = molecular target: T1, CYP2C8 (Homo sapiens, UniProt P10632); assay: CYP Inhibition Assay (CYP2C8, human liver microsomes, paclitaxel substrate); assay type: in vitro ADME; settings: pH 7.4; pooled human liver microsomes 0.1 mg/mL, probe substrate paclitaxel
T1 construct: Pooled human microsomes were obtained from Sekisui XenoTech, KS; tissue Sekisui XenoTech, KS; host or cells: pooled human liver microsomes
T1 sequence (P10632 1-490): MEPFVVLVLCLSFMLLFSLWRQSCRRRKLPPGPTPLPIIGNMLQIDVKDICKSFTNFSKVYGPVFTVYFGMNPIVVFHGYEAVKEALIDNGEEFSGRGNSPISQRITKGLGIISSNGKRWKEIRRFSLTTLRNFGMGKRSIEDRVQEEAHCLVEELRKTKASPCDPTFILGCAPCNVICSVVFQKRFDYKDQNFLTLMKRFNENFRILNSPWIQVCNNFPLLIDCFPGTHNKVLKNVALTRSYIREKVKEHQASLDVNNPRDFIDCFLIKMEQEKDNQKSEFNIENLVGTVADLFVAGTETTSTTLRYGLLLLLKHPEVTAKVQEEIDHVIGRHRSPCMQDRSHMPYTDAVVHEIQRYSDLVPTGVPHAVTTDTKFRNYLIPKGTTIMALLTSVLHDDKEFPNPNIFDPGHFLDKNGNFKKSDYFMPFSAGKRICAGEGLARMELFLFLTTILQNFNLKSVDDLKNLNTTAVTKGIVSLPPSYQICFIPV
Procedure, shortened: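 Pooled human liver microsomes (0.1 mg/mL) in 50 mM potassium phosphate pH 7.4 with compound, started with 1 mM NADPH, 5 min at 37° C, duplicate.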

GR = molecular target: T2, GR (Homo sapiens, UniProt P04150); assay: In Vitro GR Luciferase Reporter Assay (antagonist mode, CHO-K1-GR-MMTV-Luc reporter cells); assay type: cell-based; settings: antagonist mode, 10 nM Dexamethasone
T2 construct: expressed in transfected cells; host or cells: CHO-K1
T2 sequence (P04150 1-777): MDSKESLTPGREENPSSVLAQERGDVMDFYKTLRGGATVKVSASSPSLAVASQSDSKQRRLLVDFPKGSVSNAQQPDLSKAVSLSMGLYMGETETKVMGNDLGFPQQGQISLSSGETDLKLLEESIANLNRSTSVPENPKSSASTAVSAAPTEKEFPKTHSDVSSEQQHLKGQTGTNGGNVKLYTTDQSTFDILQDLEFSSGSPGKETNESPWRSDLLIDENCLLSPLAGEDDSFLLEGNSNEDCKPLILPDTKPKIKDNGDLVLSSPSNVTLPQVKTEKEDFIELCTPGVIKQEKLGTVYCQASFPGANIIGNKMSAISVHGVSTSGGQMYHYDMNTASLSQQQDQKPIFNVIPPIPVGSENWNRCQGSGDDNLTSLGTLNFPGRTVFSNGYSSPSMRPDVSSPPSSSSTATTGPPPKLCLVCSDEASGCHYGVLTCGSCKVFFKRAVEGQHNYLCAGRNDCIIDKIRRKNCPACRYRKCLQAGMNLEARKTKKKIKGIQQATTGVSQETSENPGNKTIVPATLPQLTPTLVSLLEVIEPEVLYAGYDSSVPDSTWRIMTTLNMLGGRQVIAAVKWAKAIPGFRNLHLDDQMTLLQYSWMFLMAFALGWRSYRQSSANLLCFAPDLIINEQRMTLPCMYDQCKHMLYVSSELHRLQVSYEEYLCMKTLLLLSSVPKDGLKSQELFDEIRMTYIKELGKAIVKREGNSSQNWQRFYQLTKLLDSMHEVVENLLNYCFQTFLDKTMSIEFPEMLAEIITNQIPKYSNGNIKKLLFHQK
Procedure, shortened: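 CHO-K1-GR-MMTV-Luc cells in phenol red-free DMEM with 10% CSS, stimulated with 10 nM dexamethasone (final) and treated with 8-point 1:5 compound dilutions for about 18-24 h at 37° C. Luciferase measured by OneGlo luminescence; IC50 derived for inhibition of GR activity.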

Row | Compound | inhibition at 5 min (CYP2C8) [%] | pIC50 (GR)
1 | Cn1cnc(S(=O)(=O)N(C2CC(F)(F)C2)[C@H]2CCC3=Cc4c(cnn4-c4ccc(F)cc4)C[C@]3(C(=O)c3cc(F)ccn3)C2)c1 [Example 335, N-(3,3-difluorocyclobutyl)-N-((4aS,6S)-1-(4-fluorophenyl)-4a-(4-fluoropicolinoyl)-4,4a,5,6,7,8-hexahydro-1H-benzo[f]indazol-6-yl)-1-methyl-1H-imidazole-4-sulfonamide] | ≤ 25 | ≥ 7.00
2 | Cn1ccc(S(=O)(=O)N(CC(F)F)[C@H]2CCC3=Cc4c(cnn4-c4ccc(F)cc4)C[C@]3(C(=O)c3ncc(C(F)(F)F)s3)C2)n1 [Example 337, N-(2,2-difluoroethyl)-N-((4aS,6S)-1-(4-fluorophenyl)-4a-(5-(trifluoromethyl)thiazole-2-carbonyl)-4,4a,5,6,7,8-hexahydro-1H-benzo[f]indazol-6-yl)-1-methyl-1H-pyrazole-3-sulfonamide] | 50 to 75 | ≥ 7.00
3 | Cn1ccc(S(=O)(=O)N(CC(F)F)[C@H]2CCC3=Cc4c(cnn4-c4ccc(F)cc4)C[C@]3(C(=O)c3cc(F)ccn3)C2)n1 [Example 338, N-(2,2-difluoroethyl)-N-((4aS,6S)-1-(4-fluorophenyl)-4a-(4-fluoropicolinoyl)-4,4a,5,6,7,8-hexahydro-1H-benzo[f]indazol-6-yl)-1-methyl-1H-pyrazole-3-sulfonamide] | 75 to 90 | ≥ 7.00
4 | Cn1cnc(S(=O)(=O)N(C2CC(F)(F)C2)[C@H]2CCC3=Cc4c(cnn4-c4ccc(F)cc4)C[C@]3(C(=O)c3cc(Cl)ccn3)C2)c1 [Example 339, N-((4aS,6S)-4a-(4-chloropicolinoyl)-1-(4-fluorophenyl)-4,4a,5,6,7,8-hexahydro-1H-benzo[f]indazol-6-yl)-N-(3,3-difluorocyclobutyl)-1-methyl-1H-imidazole-4-sulfonamide] | 25 to 50 | ≥ 7.00
5 | O=C(c1cc(C(F)(F)F)ccn1)[C@]12Cc3cnn(-c4ccc(F)cc4)c3C=C1CC[C@H](N(CC(F)F)S(=O)(=O)c1ccc(Cl)nc1)C2 [Example 341, 6-chloro-N-(2,2-difluoroethyl)-N-((4aS,6S)-1-(4-fluorophenyl)-4a-(4-(trifluoromethyl)picolinoyl)-4,4a,5,6,7,8-hexahydro-1H-benzo[f]indazol-6-yl)pyridine-3-sulfonamide] | 25 to 50 | ≥ 7.00
6 | CO[C@]1(C)C[C@H](N([C@H]2CCC3=Cc4c(cnn4-c4ccc(F)cc4)C[C@]3(C(=O)c3ncc(C(F)(F)F)s3)C2)S(=O)(=O)c2ccn(C)n2)C1 [Example 342, N-((4aS,6S)-1-(4-fluorophenyl)-4a-(5-(trifluoromethyl)thiazole-2-carbonyl)-4,4a,5,6,7,8-hexahydro-1H-benzo[f]indazol-6-yl)-N-((1s,3R)-3-methoxy-3-methylcyclobutyl)-1-methyl-1H-pyrazole-3-sulfonamide] | 25 to 50 | ≥ 7.00
7 | C[C@]1(O)C[C@@H](N([C@H]2CCC3=Cc4c(cnn4-c4ccc(F)cc4)C[C@]3(C(=O)c3cc(Cl)ccn3)C2)S(=O)(=O)c2ccc(F)cc2)C1 [Example 344, N-((4aS,6S)-4a-(4-chloropicolinoyl)-1-(4-fluorophenyl)-4,4a,5,6,7,8-hexahydro-1H-benzo[f]indazol-6-yl)-4-fluoro-N-((1s,3R)-3-hydroxy-3-methylcyclobutyl)benzenesulfon-amide] | 25 to 50 | ≥ 7.00
8 | O=C(c1cc(F)ccn1)[C@]12Cc3cnn(-c4ccc(F)cc4)c3C=C1CC[C@H](N(C1CC(F)(F)C1)S(=O)(=O)c1ccc(Cl)nc1)C2 [Example 346, 6-chloro-N-(3,3-difluorocyclobutyl)-N-((4aS,6S)-1-(4-fluorophenyl)-4a-(4-fluoropicolinoyl)-4,4a,5,6,7,8-hexahydro-1H-benzo[f]indazol-6-yl)pyridine-3-sulfonamide] | 25 to 50 | ≥ 7.00
9 | Cn1cnc(S(=O)(=O)N(C2CC2)[C@H]2CCC3=Cc4c(cnn4-c4ccc(F)cc4)C[C@]3(C(=O)c3cc(F)ccn3)C2)n1 [Example 347, N-cyclopropyl-N-((4aS,6S)-1-(4-fluorophenyl)-4a-(4-fluoropicolinoyl)-4,4a,5,6,7,8-hexahydro-1H-benzo[f]indazol-6-yl)-1-methyl-1H-1,2,4-triazole-3-sulfonamide] | 25 to 50 | ≥ 7.00
10 | Cn1cnc(S(=O)(=O)N(C2CC2)[C@H]2CCC3=Cc4c(cnn4-c4ccc(F)cc4)C[C@]3(C(=O)c3cc(Cl)ccn3)C2)n1 [Example 348, N-((4aS,6S)-4a-(4-chloropicolinoyl)-1-(4-fluorophenyl)-4,4a,5,6,7,8-hexahydro-1H-benzo[f]indazol-6-yl)-N-cyclopropyl-1-methyl-1H-1,2,4-triazole-3-sulfonamide] | 25 to 50 | ≥ 7.00
11 | Cn1ccc(S(=O)(=O)N(C2CC(F)(F)C2)[C@H]2CCC3=Cc4c(cnn4-c4ccc(F)cc4)C[C@]3(C(=O)c3cc(Cl)ccn3)C2)n1 [Example 349, N-((4aS,6S)-4a-(4-chloropicolinoyl)-1-(4-fluorophenyl)-4,4a,5,6,7,8-hexahydro-1H-benzo[f]indazol-6-yl)-N-(3,3-difluorocyclobutyl)-1-methyl-1H-pyrazole-3-sulfonamide] | 25 to 50 | ≥ 7.00
12 | Cn1cc(S(=O)(=O)N(CC(F)F)[C@H]2CCC3=Cc4c(cnn4-c4ccc(F)cc4)C[C@]3(C(=O)c3ncc(C(F)(F)F)s3)C2)nn1 [Example 350, N-(2,2-difluoroethyl)-N-((4aS,6S)-1-(4-fluorophenyl)-4a-(5-(trifluoromethyl)thiazole-2-carbonyl)-4,4a,5,6,7,8-hexahydro-1H-benzo[f]indazol-6-yl)-1-methyl-1H-1,2,3-triazole-4-sulfonamide] | 25 to 50 | ≥ 7.00
13 | Cn1cnc(S(=O)(=O)N(C2CC(F)(F)C2)[C@H]2CCC3=Cc4c(cnn4-c4ccc(F)cc4)C[C@]3(C(=O)c3cc(F)ccn3)C2)n1 [Example 354, N-(3,3-difluorocyclobutyl)-N-((4aS,6S)-1-(4-fluorophenyl)-4a-(4-fluoropicolinoyl)-4,4a,5,6,7,8-hexahydro-1H-benzo[f]indazol-6-yl)-1-methyl-1H-1,2,4-triazole-3-sulfonamide] | 25 to 50 | ≥ 7.00
14 | Cn1cnc(S(=O)(=O)N(C2CC(F)(F)C2)[C@H]2CCC3=Cc4c(cnn4-c4ccc(F)cc4)C[C@]3(C(=O)c3cc(Cl)ccn3)C2)n1 [Example 355, N-((4aS,6S)-4a-(4-chloropicolinoyl)-1-(4-fluorophenyl)-4,4a,5,6,7,8-hexahydro-1H-benzo[f]indazol-6-yl)-N-(3,3-difluorocyclobutyl)-1-methyl-1H-1,2,4-triazole-3-sulfonamide] | ≤ 25 | ≥ 7.00
15 | CCN([C@H]1CCC2=Cc3c(cnn3-c3ccc(F)cc3)C[C@]2(C(=O)c2ncc(C(F)(F)F)s2)C1)S(=O)(=O)c1ncn(C)n1 [Example 356, N-ethyl-N-((4aS,6S)-1-(4-fluorophenyl)-4a-(5-(trifluoromethyl)thiazole-2-carbonyl)-4,4a,5,6,7,8-hexahydro-1H-benzo[f]indazol-6-yl)-1-methyl-1H-1,2,4-triazole-3-sulfonamide] | 25 to 50 | ≥ 7.00
